Reference: article PMC4583267, “Synthesis and Evaluation of Novel Triterpene Analogues of Ursolic Acid as Potential Antidiabetic Agent” (PLoS ONE, 2015)

Target: T1, α-glucosidase from baker's yeast (Saccharomyces cerevisiae, UniProt P53341)
T1 construct: purchased
Experiment: biochemical
Settings: not given
Experimental: A stock solution of each sample, which has been dissolved in dimethylsulfoxide (DMSO) at the concentrations of 0.05 μM to 500 μM, was diluted with 0.1 M phosphate buffer solution (pH = 6.8) containing an appropriate concentration of enzyme solution (0.1 U/mL). After a 10 min pre-incubation at 37°C of the reactions, the substrate (1mM p-nitrophenyl-α-D-glucopyranoside) was added to initiate them. Then the reactions were incubated for 30 min at 37°C before they were terminated by adding 1 M Na2CO3, and their optical density values were measured at 405 nm by using a Multimodel Plate Reader (Infinite 200). Each experiment was repeated at least four times.
To determine the inhibition activity of each sample, the enzyme activity was measured at a fixed substrate concentration, in which a sequence of sample concentrations were tested. The IC50 value was calculated according to the curve fit to the sequence of concentrations versus the corresponding inhibition abilities. The results were illustrated in Table 1 and Fig 3.
The α-glucosidase inhibition assay was performed according to the method of Worawalai et al. with a slight modification. The α-glucosidase enzyme (0.1 U/mL) and substrate (1 mM p-nitrophenyl-α-D-glucopyranoside) were dissolved in 0.1 M phosphate buffer, pH 6.8. 10 μL of each synthesized analogue (1 mg/mL in DMSO) was pre-incubated with 8 μL of α-glucosidase at 37°C for 10 min. A 100 μL of substrate solution was then added to the reaction mixture, which was further incubated at 37°C for 30 min. Then, the reaction was terminated by adding 100 μL of 1 M Na2CO3 solution. Enzymatic activity was quantified by measuring the absorbance at 405 nm with a use of a Multimodel Plate Reader (Infinite 200). The percentage of inhibition was calculated by using [(A 0-A 1)/A 0]×100%, where A 0 was the absorbance without the sample, and A 1 was the absorbance with the sample. The IC50 value was determined from a plot of the percentage of inhibition versus the sample concentration.

T1 sequence (P53341 whole entry): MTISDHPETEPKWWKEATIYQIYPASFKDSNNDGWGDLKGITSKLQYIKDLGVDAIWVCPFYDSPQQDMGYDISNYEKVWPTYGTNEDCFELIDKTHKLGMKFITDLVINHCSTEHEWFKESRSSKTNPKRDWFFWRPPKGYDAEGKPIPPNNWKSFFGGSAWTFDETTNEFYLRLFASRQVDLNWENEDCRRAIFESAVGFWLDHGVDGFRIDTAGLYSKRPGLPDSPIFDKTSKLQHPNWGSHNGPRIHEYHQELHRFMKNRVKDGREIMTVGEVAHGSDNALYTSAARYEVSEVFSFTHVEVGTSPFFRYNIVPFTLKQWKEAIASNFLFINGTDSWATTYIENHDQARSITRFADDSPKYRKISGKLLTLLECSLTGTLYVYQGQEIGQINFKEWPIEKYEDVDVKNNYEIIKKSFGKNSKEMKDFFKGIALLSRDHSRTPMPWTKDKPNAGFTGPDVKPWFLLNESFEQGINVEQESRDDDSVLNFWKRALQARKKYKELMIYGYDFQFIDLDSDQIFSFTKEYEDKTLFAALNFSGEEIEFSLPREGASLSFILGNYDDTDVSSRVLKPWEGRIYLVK

| SMILES | IC50 [nM] |
| --- | --- |
| C[C@H]1[C@H](C)CC[C@]2(C(=O)O)CC[C@]3(C)C(=CC[C@@H]4[C@@]5(C)CC[C@H](O)C(C)(C)[C@@H]5CC[C@]43C)[C@H]12 [Analogue 1, 3β-hydroxy-urs-12-en-28-oic acid, reference compound] | 5080 ± 700 |
| C[C@@H]1CC[C@]2(C(=O)O)CC[C@]3(C)C(=CCC4[C@@]5(C)CCC(=O)C(C)(C)C5CC[C@]43C)C2[C@H]1C (stereo partly shown) [Analogue 11, 3-Oxo-urs-12-en-28-oic acid] | 2470 |

Same assay, conditions: Table 1; read-out: Observed pIC50 (converted)

| IC50 [nM] | SMILES |
| --- | --- |
| 1690 | C[C@@H]1CC[C@]2(C(=O)Nc3ccccc3)CC[C@]3(C)C(=CCC4[C@@]5(C)CC[C@H](O)C(C)(C)C5CC[C@]43C)C2[C@H]1C (stereo partly drawn) [Analogue 3b, N-[3β-Hydroxy-urs-12-en-28-oyl]-aminobenzene] |
| 1510 | C[C@@H]1CC[C@]2(C(=O)Nc3ccccc3F)CC[C@]3(C)C(=CCC4[C@@]5(C)CC[C@H](O)C(C)(C)C5CC[C@]43C)C2[C@H]1C (stereo partly drawn) [Analogue 4b, N-[3β-Hydroxy-urs-12-en-28-oyl]-o-fluoroaniline] |
| 1310 | C[C@@H]1CC[C@]2(C(=O)Nc3ccccc3Cl)CC[C@]3(C)C(=CCC4[C@@]5(C)CC[C@H](O)C(C)(C)C5CC[C@]43C)C2[C@H]1C (stereo partly drawn) [Analogue 5b, N-[3β-Hydroxy-urs-12-en-28-oyl]-o-chloroaniline] |
| 2560 | C[C@@H]1CC[C@]2(C(=O)Nc3ccccc3Br)CC[C@]3(C)C(=CCC4[C@@]5(C)CC[C@H](O)C(C)(C)C5CC[C@]43C)C2[C@H]1C (stereo partly drawn) [Analogue 6b, N-[3β-Hydroxy-urs-12-en-28-oyl]-o-bromoaniline] |
| 1670 | C[C@@H]1CC[C@]2(C(=O)Nc3ccc(F)cc3)CC[C@]3(C)C(=CCC4[C@@]5(C)CC[C@H](O)C(C)(C)C5CC[C@]43C)C2[C@H]1C (stereo partly drawn) [Analogue 7b, N-[3β-Hydroxy-urs-12-en-28-oyl]-p-fluoroaniline] |
| 1270 | C[C@@H]1CC[C@]2(C(=O)Nc3ccc(Cl)cc3)CC[C@]3(C)C(=CCC4[C@@]5(C)CC[C@H](O)C(C)(C)C5CC[C@]43C)C2[C@H]1C (stereo partly drawn) [Analogue 8b, N-[3β-Hydroxy-urs-12-en-28-oyl]-p-chloroaniline] |
| 1280 | C[C@@H]1CC[C@]2(C(=O)Nc3ccc(Br)cc3)CC[C@]3(C)C(=CCC4[C@@]5(C)CC[C@H](O)C(C)(C)C5CC[C@]43C)C2[C@H]1C (stereo partly drawn) [Analogue 9b, N-[3β-Hydroxy-urs-12-en-28-oyl]-p-bromoaniline] |
| 2550 | COc1ccc(NC(=O)[C@]23CC[C@@H](C)[C@H](C)C2C2=CCC4[C@@]5(C)CC[C@H](O)C(C)(C)C5CC[C@@]4(C)[C@]2(C)CC3)cc1 (stereo partly drawn) [Analogue 10b, N-[3β-Hydroxy-urs-12-en-28-oyl]-p-methoxylaniline] |

| SMILES | IC50 [nM] |
| --- | --- |
| COc1ccc(NC(=O)[C@]23CC[C@@H](C)[C@H](C)C2C2=CCC4[C@@]5(C)CC[C@H](OC(C)=O)C(C)(C)C5CC[C@@]4(C)[C@]2(C)CC3)cc1 (stereo partly drawn) [Analogue 10a, N-[3β-acetoxy-urs-12-en-28-oyl]-p-methoxyamiline] | 2010 |

Target: T1, α-glucosidase from baker's yeast
Experiment: not given
Settings: S4 Table; analogues of previous work; cited from earlier work

| SMILES | Observed pIC50 |
| --- | --- |
| CC(=O)O[C@H]1CC[C@@]2(C)C(CC[C@]3(C)C2CC=C2C4[C@@H](C)[C@H](C)CC[C@]4(C(=O)O)CC[C@]23C)C1(C)C (stereo partly shown) [Analogue 2] | 5.278 |
| CC(=O)O[C@H]1CC[C@@]2(C)C(CC[C@]3(C)C2CC=C2C4[C@@H](C)[C@H](C)CC[C@]4(C(=O)Nc4ccccc4)CC[C@]23C)C1(C)C (stereo partly shown) [Analogue 3a] | 5.249 |
| CC(=O)O[C@H]1CC[C@@]2(C)C(CC[C@]3(C)C2CC=C2C4[C@@H](C)[C@H](C)CC[C@]4(C(=O)Nc4ccccc4F)CC[C@]23C)C1(C)C (stereo partly shown) [Analogue 4a] | 4.848 |
| CC(=O)O[C@H]1CC[C@@]2(C)C(CC[C@]3(C)C2CC=C2C4[C@@H](C)[C@H](C)CC[C@]4(C(=O)Nc4ccccc4Cl)CC[C@]23C)C1(C)C (stereo partly shown) [Analogue 5a] | 4.481 |
| CC(=O)O[C@H]1CC[C@@]2(C)C(CC[C@]3(C)C2CC=C2C4[C@@H](C)[C@H](C)CC[C@]4(C(=O)Nc4ccccc4Br)CC[C@]23C)C1(C)C (stereo partly shown) [Analogue 6a] | 4.954 |
| CC(=O)O[C@H]1CC[C@@]2(C)C(CC[C@]3(C)C2CC=C2C4[C@@H](C)[C@H](C)CC[C@]4(C(=O)Nc4ccc(F)cc4)CC[C@]23C)C1(C)C (stereo partly shown) [Analogue 7a] | 5.185 |
| CC(=O)O[C@H]1CC[C@@]2(C)C(CC[C@]3(C)C2CC=C2C4[C@@H](C)[C@H](C)CC[C@]4(C(=O)Nc4ccc(Cl)cc4)CC[C@]23C)C1(C)C (stereo partly shown) [Analogue 8a] | 5.489 |
| CC(=O)O[C@H]1CC[C@@]2(C)C(CC[C@]3(C)C2CC=C2C4[C@@H](C)[C@H](C)CC[C@]4(C(=O)Nc4ccc(Br)cc4)CC[C@]23C)C1(C)C (stereo partly shown) [Analogue 9a] | 5.030 |

Same assay, conditions: values of earlier work; cited from earlier work

| SMILES | IC50 [µM] |
| --- | --- |
| CC(=O)O[C@H]1CC[C@@]2(C)C(CC[C@]3(C)C2CC=C2C4[C@@H](C)[C@H](C)CC[C@]4(C(=O)O)CC[C@]23C)C1(C)C (stereo partly shown) [Analogue 2] | 5.27 ± 0.35 |
| CC(=O)O[C@H]1CC[C@@]2(C)C(CC[C@]3(C)C2CC=C2C4[C@@H](C)[C@H](C)CC[C@]4(C(=O)Nc4ccccc4)CC[C@]23C)C1(C)C (stereo partly shown) [Analogue 3a] | 5.64 ± 1.12 |
| CC(=O)O[C@H]1CC[C@@]2(C)C(CC[C@]3(C)C2CC=C2C4[C@@H](C)[C@H](C)CC[C@]4(C(=O)Nc4ccc(Cl)cc4)CC[C@]23C)C1(C)C (stereo partly shown) [Analogue 8a] | 3.24 ± 0.21 |
